Laboratory results reported in patent US20260132132A1, “3A,4,5,6-TETRAHYDRO-1 H-PYRAZOLO[3,4-C]PYRIDIN-7(7AH)-ONE DERIVATIVES AS FACTOR XIIA INHIBITORS” (KALVISTA PHARMACEUTICALS LIMITED, priority 2022, published 2026).

Legend:
[1] = molecular target: T1, Human Factor XIIa (hFXIIa) (Homo sapiens, UniProt P00748); experiment: Determination of Human Factor XIIa (hFXIIa) inhibition, fluorogenic substrate IC50 assay; format: biochemical; settings: fluorogenic substrate H-DPro-Phe-Arg-AFC at Km, 25° C., read-out: Human FXIIa IC50
T1 construct: purchased Enzyme Research Laboratories
T1 sequence (P00748 373-615 limits assumed): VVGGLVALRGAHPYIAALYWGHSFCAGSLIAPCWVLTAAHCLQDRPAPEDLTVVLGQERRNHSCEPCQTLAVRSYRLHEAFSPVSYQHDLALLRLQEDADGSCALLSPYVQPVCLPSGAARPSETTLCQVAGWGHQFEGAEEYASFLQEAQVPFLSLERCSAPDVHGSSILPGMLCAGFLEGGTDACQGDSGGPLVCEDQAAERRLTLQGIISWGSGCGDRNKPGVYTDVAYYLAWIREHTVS
T1 sequence (P00748 20-372 partner limits assumed): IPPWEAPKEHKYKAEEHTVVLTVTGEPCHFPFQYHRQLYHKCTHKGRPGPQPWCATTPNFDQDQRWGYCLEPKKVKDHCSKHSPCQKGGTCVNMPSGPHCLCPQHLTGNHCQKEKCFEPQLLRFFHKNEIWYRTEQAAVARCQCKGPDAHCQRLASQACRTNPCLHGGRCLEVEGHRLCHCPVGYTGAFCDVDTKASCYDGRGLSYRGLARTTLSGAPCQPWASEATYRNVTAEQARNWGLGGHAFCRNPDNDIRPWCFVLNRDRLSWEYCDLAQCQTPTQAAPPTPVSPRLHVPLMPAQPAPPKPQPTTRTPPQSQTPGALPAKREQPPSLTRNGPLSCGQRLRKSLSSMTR
Method: Determination of Human Factor XIIa (hFXIIa) inhibition
The Km for the cleavage of the substrate by hFXIIa was determined by standard transformation of the Michaelis-Menten equation, with subsequent inhibition assays performed at substrate Km concentration.

FXa = FXa (Homo sapiens, UniProt P00742); experiment: Related protease inhibition: FXa, fluorogenic substrate; format: biochemical; settings: fluorogenic substrate at Km, 25° C.; H1-H3 = % activity at 40 μM
Sequence of FXa (P00742 235-488 limits assumed): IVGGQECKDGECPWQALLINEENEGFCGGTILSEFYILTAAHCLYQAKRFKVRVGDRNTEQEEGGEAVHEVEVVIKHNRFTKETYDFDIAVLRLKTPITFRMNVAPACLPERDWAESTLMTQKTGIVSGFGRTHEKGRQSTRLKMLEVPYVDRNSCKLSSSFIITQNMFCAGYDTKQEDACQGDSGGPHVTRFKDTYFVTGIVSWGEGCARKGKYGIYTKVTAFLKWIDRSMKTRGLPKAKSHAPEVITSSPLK
Sequence of FXa (P00742 41-179 partner limits assumed): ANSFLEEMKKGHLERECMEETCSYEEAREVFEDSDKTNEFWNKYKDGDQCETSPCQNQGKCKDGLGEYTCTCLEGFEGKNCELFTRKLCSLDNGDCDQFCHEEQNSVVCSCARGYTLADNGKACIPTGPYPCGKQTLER
Method: Human serine protease enzyme Plasma Kallikrein, KLK1, FXa, Plasmin, Thrombin and Trypsin were assayed for enzymatic activity using an appropriate fluorogenic substrate at Km concentration, FXIa at fixed substrate concentration of 100 μM and various concentrations of the test compound.

Structure (SMILES)	IC50 [1] [nM]	IC50 (FXa) [nM]
O=C(NCc1ccccc1)c1nn(-c2cccc(Cl)c2)c2c1CCN(c1cccc(CN3CCCCC3)c1)C2=O [Example 1001, N-Benzyl-1-(3-chlorophenyl)-7-oxo-6-(3-(piperidin-1-ylmethyl)phenyl)-4,5,6,7-tetrahydro-1H-pyrazolo[3,4-c]pyridine-3-carboxamide]	100 to 300	> 40000
O=C(NCC1CC1)c1nn(-c2cccc(Cl)c2)c2c1CCN(c1cccc(CN3CCCCC3)c1)C2=O [Example 1002, 1-(3-chlorophenyl)-N-(cyclopropylmethyl)-7-oxo-6-(3-(piperidin-1-ylmethyl)phenyl)-4,5,6,7-tetrahydro-1H-pyrazolo[3,4-c]pyridine-3-carboxamide]	300 to 1000	> 10000
O=C(NCc1cccnc1)c1nn(-c2cccc(Cl)c2)c2c1CCN(c1cccc(CN3CCCCC3)c1)C2=O [Example 1003, 1-(3-chlorophenyl)-7-oxo-6-(3-(piperidin-1-ylmethyl)phenyl)-N-(pyridin-3-ylmethyl)-4,5,6,7-tetrahydro-1H-pyrazolo[3,4-c]pyridine-3-carboxamide]	300 to 1000	> 100000
CN(Cc1ccccc1)C(=O)c1nn(-c2cccc(Cl)c2)c2c1CCN(c1cccc(CN3CCCCC3)c1)C2=O [Example 1004, N-benzyl-1-(3-chlorophenyl)-N-methyl-7-oxo-6-(3-(piperidin-1-ylmethyl)phenyl)-4,5,6,7-tetrahydro-1H-pyrazolo[3,4-c]pyridine-3-carboxamide]	1000 to 3000	> 40000
COc1ccc(-n2nc(C(=O)NCc3cnccc3C)c3c2C(=O)N(c2ccc4c(c2)CN(CCO)CC4)CC3)cc1 [Example 2003, 6-(2-(2-hydroxyethyl)-1,2,3,4-tetrahydroisoquinolin-7-yl)-1-(4-methoxyphenyl)-N-((4-methylpyridin-3-yl)methyl)-7-oxo-4,5,6,7-tetrahydro-1H-pyrazolo[3,4-c]pyridine-3-carboxamide]	300 to 1000	–
Cc1cccc(-n2nc(C(=O)NCC3CC3)c3c2C(=O)N(c2ccc4c(c2)C(=O)N(C)CC4)CC3)c1 [Example 2011, N-(cyclopropylmethyl)-6-(2-methyl-1-oxo-1,2,3,4-tetrahydroisoquinolin-7-yl)-7-oxo-1-(m-tolyl)-4,5,6,7-tetrahydro-1H-pyrazolo[3,4-c]pyridine-3-carboxamide]	300 to 1000	–
CN1CCc2ccc(N3CCc4c(C(=O)NCC5CC5)nn(-c5cc(Cl)cc(C(N)=O)c5)c4C3=O)cc2C1=O [Example 2014, 1-(3-carbamoyl-5-chlorophenyl)-N-(cyclopropylmethyl)-6-(2-methyl-1-oxo-1,2,3,4-tetrahydroisoquinolin-7-yl)-7-oxo-4,5,6,7-tetrahydro-1H-pyrazolo[3,4-c]pyridine-3-carboxamide]	300 to 1000	–
CN1CCc2ccc(N3CCc4c(C(=O)NCC5CC5)nn(-c5csc(Cl)c5)c4C3=O)cc2C1=O [Example 2015]	1000 to 3000	–
CN1CCc2ccc(N3CCc4c(C(=O)NCC5CC5)nn(-c5cc(Cl)ccn5)c4C3=O)cc2C1=O [Example 2016, 1-(4-chloropyridin-2-yl)-N-(cyclopropylmethyl)-6-(2-methyl-1-oxo-1,2,3,4-tetrahydroisoquinolin-7-yl)-7-oxo-4,5,6,7-tetrahydro-1H-pyrazolo[3,4-c]pyridine-3-carboxamide]	3000 to 10000	–
CN1CCc2ccc(N3CCc4c(C(=O)NCC5CC5)nn(-c5cncc(Cl)c5)c4C3=O)cc2C1=O [Example 2021, 1-(5-chloropyridin-3-yl)-N-(cyclopropylmethyl)-6-(2-methyl-1-oxo-1,2,3,4-tetrahydroisoquinolin-7-yl)-7-oxo-4,5,6,7-tetrahydro-1H-pyrazolo[3,4-c]pyridine-3-carboxamide]	3000 to 10000	–
CCOC(=O)c1nn(-c2cc(C)cc(CN)c2)c2c1CCN(c1ccc3c(c1)C(=O)N(C)CC3)C2=O [Example 2022, ethyl 1-(3-(aminomethyl)-5-methylphenyl)-6-(2-methyl-1-oxo-1,2,3,4-tetrahydroisoquinolin-7-yl)-7-oxo-4,5,6,7-tetrahydro-1H-pyrazolo[3,4-c]pyridine-3-carboxylate]	10 to 100	–
CCOC(=O)c1nn(-c2cccc(C)n2)c2c1CCN(c1ccc3c(c1)C(=O)N(C)CC3)C2=O [Example 2023, ethyl 6-(2-methyl-1-oxo-1,2,3,4-tetrahydroisoquinolin-7-yl)-1-(6-methylpyridin-2-yl)-7-oxo-4,5,6,7-tetrahydro-1H-pyrazolo[3,4-c]pyridine-3-carboxylate]	300 to 1000	–

Other lines, results leading:

IC50 [1] [nM]	IC50 (FXa) [nM]	Structure (SMILES)
> 4000	–	CCNC(=O)c1nn(-c2cnc(N)c(Cl)c2)c2c1CCN(c1ccc3c(c1)C(=O)N(C)CC3)C2=O [Example 2031, 1-(6-amino-5-chloropyridin-3-yl)-N-ethyl-6-(2-methyl-1-oxo-1,2,3,4-tetrahydroisoquinolin-7-yl)-7-oxo-4,5,6,7-tetrahydro-1H-pyrazolo[3,4-c]pyridine-3-carboxamide]
10000 to 40000	–	CCNC(=O)c1nn(-c2ccc(C)cc2F)c2c1CCN(c1ccc3c(c1)C(=O)N(C)CC3)C2=O [Example 2034, N-ethyl-1-(2-fluoro-4-methylphenyl)-6-(2-methyl-1-oxo-1,2,3,4-tetrahydroisoquinolin-7-yl)-7-oxo-4,5,6,7-tetrahydro-1H-pyrazolo[3,4-c]pyridine-3-carboxamide]
300 to 1000	–	CN1CCc2ccc(-n3cnc4c(C#N)nn(-c5cccc(Cl)c5)c4c3=O)cc2C1 [Example 3001, 1-(3-chlorophenyl)-6-(2-methyl-1,2,3,4-tetrahydroisoquinolin-7-yl)-7-oxo-6,7-dihydro-1H-pyrazolo[4,3-d]pyrimidine-3-carbonitrile]
100 to 300	–	Cc1nc2c(C#N)nn(-c3cccc(Cl)c3)c2c(=O)n1-c1ccc2c(c1)CN(C)CC2 [Example 3002, 1-(3-Chlorophenyl)-5-methyl-6-(2-methyl-1,2,3,4-tetrahydroisoquinolin-7-yl)-7-oxo-6,7-dihydro-1H-pyrazolo[4,3-d]pyrimidine-3-carbonitrile]
300 to 1000	–	Cc1nc2c(C(=O)NCC3CC3)nn(-c3cccc(Cl)c3F)c2c(=O)n1-c1ccc2c(c1)C(=O)N(C)CCO2 [Example 3023, 1-(3-chloro-2-fluorophenyl)-N-(cyclopropylmethyl)-5-methyl-6-(4-methyl-5-oxo-2,3,4,5-tetrahydrobenzo[f][1,4]oxazepin-7-yl)-7-oxo-6,7-dihydro-1H-pyrazolo[4,3-d]pyrimidine-3-carboxamide]
100 to 300	–	Cc1ccncc1CNC(=O)n1nc(-c2cccc(Cl)c2)c2c1CCN(c1ccc3c(c1)CN(CCO)CC3)C2=O [Example 4003, 3-(3-chlorophenyl)-5-(2-(2-hydroxyethyl)-1,2,3,4-tetrahydroisoquinolin-7-yl)-N-((4-methylpyridin-3-yl)methyl)-4-oxo-4,5,6,7-tetrahydro-1H-pyrazolo[4,3-c]pyridine-1-carboxamide]
1000 to 3000	–	O=C(Cn1nc(-c2cccc(Cl)c2)c2c1CCN(c1ccc3c(c1)CN(CCO)CC3)C2=O)NC1CC1 [Example 4004, 2-(3-(3-chlorophenyl)-5-(2-(2-hydroxyethyl)-1,2,3,4-tetrahydroisoquinolin-7-yl)-4-oxo-4,5,6,7-tetrahydro-1H-pyrazolo[4,3-c]pyridin-1-yl)-N-cyclopropylacetamide]
